PubChem BioAssay (NCI)
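96-well plates; 48 h exposure; 5 concentrations. Endpoints by linear interpolation between flanking doses. Not reached: highest tested concentration assigned. GI50 = concentration required for 50% inhibition of growth. Definition used: TGI = concentration required for complete inhibition of growth.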

Legend:
Test in all cases: NCI anticancer screen, dose series, 48 h
NCI-H460 lung = tested on: NCI-H460 lung
HL-60(TB) leukemia = tested on: HL-60(TB) leukemia
A549 NSCLC = tested on: A549 NSCLC
SN12C renal = tested on: SN12C renal
TK-10 renal = tested on: TK-10 renal
U251 CNS = tested on: U251 CNS
NCI-H23 lung = tested on: NCI-H23 lung
SK-OV-3 ovarian = tested on: SK-OV-3 ovarian
SK-MEL-28 melanoma = tested on: SK-MEL-28 melanoma
HCT-116 colon = tested on: HCT-116 colon

SMILES | TGI (NCI-H460 lung) | TGI (HL-60(TB) leukemia) | TGI (A549 NSCLC) | TGI (SN12C renal) | TGI (TK-10 renal) | TGI (U251 CNS) | TGI (NCI-H23 lung) | TGI (SK-OV-3 ovarian) | TGI (SK-MEL-28 melanoma) | TGI (HCT-116 colon) | GI50 (NCI-H460 lung) | GI50 (A549 NSCLC) | GI50 (SN12C renal) | GI50 (TK-10 renal) | GI50 (U251 CNS) | GI50 (NCI-H23 lung) | GI50 (SK-OV-3 ovarian) | GI50 (SK-MEL-28 melanoma) | GI50 (HL-60(TB) leukemia) | GI50 (HCT-116 colon)
Clc1ccc(C(n2cc(Br)cn2)n2cc(Br)cn2)cc1 | 33.7 µM | 56.6 µM | 32.6 µM | 32.3 µM | 32 µM | 30.8 µM | 42.6 µM | 60.9 µM | 32.6 µM | – | – | – | – | – | – | – | – | – | – | –
COc1cccc(/C=N/C(/N=C/c2cccc(OC)c2O)c2cccc(OC)c2O)c1O | 59.9 µM | 68.5 µM | 78.8 µM | 77.6 µM | 55.6 µM | 80.1 µM | > 100 µM | 78.1 µM | > 100 µM | > 100 µM | – | – | – | – | – | – | – | – | – | –
CC(C)=CC1=C2C3=C(C(=O)C4(O)Oc5c(C)c6c7c(c5OC24C)[C@@H](C)CC[C@@H]7[C@@H](C)C[C@H]6C=C(C)C)C(C)CCC3C(C)C1 (stereo partly specified) | > 100 µM | – | > 100 µM | > 100 µM | > 100 µM | > 100 µM | > 100 µM | > 100 µM | > 100 µM | – | > 100 µM | > 100 µM | > 100 µM | > 100 µM | > 100 µM | > 100 µM | > 100 µM | 8.82 µM | – | –
CC(=O)O[C@H]1C(=O)[C@@]2(C)C(C(OC(=O)c3ccccc3)C3[C@@H](O)C(OC(=O)[C@@H](O)[C@H](NC(=O)c4ccccc4)c4ccc(C(F)(F)F)cc4)C(C)=C1C3(C)C)[C@]1(OC(C)=O)CO[C@@H]1C[C@@H]2O (stereo partly specified) | > 25 µM | > 25 µM | > 25 µM | > 25 µM | > 25 µM | > 25 µM | > 25 µM | > 25 µM | > 25 µM | > 25 µM | – | – | – | – | – | – | – | – | – | –
NC(N)=NS(=O)(=O)c1ccc(NCCc2c3ccccc3nc3ccccc23)cc1 | > 100 µM | 82.5 µM | > 100 µM | > 100 µM | > 100 µM | > 100 µM | – | > 100 µM | > 100 µM | > 100 µM | – | – | – | – | – | – | – | – | – | –
COc1ccc(C2ON(c3cccc(C)n3)CC=C2C)cc1 (stereo unspecified) | > 100 µM | 43.7 µM | > 100 µM | > 100 µM | – | > 100 µM | > 100 µM | > 100 µM | 71.3 µM | – | – | – | – | – | – | – | – | – | – | –
O=C(O)C1CC(O)CN1 (stereo unspecified) | > 100 µM | > 100 µM | > 100 µM | > 100 µM | > 100 µM | > 100 µM | > 100 µM | > 100 µM | > 100 µM | > 100 µM | – | – | – | – | – | – | – | – | – | –
O=C1C[C@@H]2/C(=C(O)\C=C\c3ccccc3)C(=O)C=C[C@@H]2O1 | 7.18 µM | 5.93 µM | 12.8 µM | 5.64 µM | 7.59 µM | 3.41 µM | 3.95 µM | 16.9 µM | 6.56 µM | 1.6 µM | 2.23 µM | 3.51 µM | 2.15 µM | 2.63 µM | 1.56 µM | 1.78 µM | 4.86 µM | 2.33 µM | 1.57 µM | 0.382 µM
O=C(/C=C/c1ccc(C(F)(F)F)cc1)c1ccc(Nc2nc(NCCO)nc(Nc3ccc(Cl)cc3)n2)cc1 | 13.6 µM | 51.8 µM | 13.5 µM | 17.5 µM | – | 5.57 µM | 26.2 µM | 34.3 µM | 18.3 µM | 2.83 µM | 4 µM | 3.48 µM | 5.53 µM | – | 2.18 µM | 10.7 µM | 13.4 µM | 5.88 µM | 12.2 µM | 1.48 µM
Cc1cccc(C)c1NC(=O)C(=O)Nn1c(NN)nc2ccccc2c1=O | > 100 µM | > 100 µM | > 100 µM | > 100 µM | > 100 µM | > 100 µM | > 100 µM | > 100 µM | > 100 µM | > 100 µM | – | – | – | – | – | – | – | – | – | –
CC(C)CC(NC(=O)OC(C)(C)C)C(=O)Nc1ccc(Nc2nc(F)nc(-c3c4ccccc4cn3C)n2)cc1 (stereo unspecified) | > 100 µM | 33 µM | > 100 µM | > 100 µM | > 100 µM | > 46.4 µM | > 100 µM | > 100 µM | > 100 µM | > 100 µM | – | – | – | – | – | – | – | – | – | –
COc1cc(C2CC(c3ccc(Nc4ccnc5cc(Cl)ccc45)cc3)=NN2c2ccc(Cl)cc2)cc(OC)c1OC (stereo unspecified) | > 100 µM | > 100 µM | > 100 µM | > 100 µM | > 100 µM | > 100 µM | > 100 µM | > 100 µM | 55.9 µM | > 100 µM | 3.16 µM | 4.15 µM | 7.56 µM | 5.05 µM | 2.91 µM | 8.82 µM | 3.26 µM | 2.66 µM | 4.68 µM | 3.08 µM
COC(=O)/C=C/c1cc2c(cc1-c1c(C(=O)O)cc(OC)c(OC)c1OC)OCO2 | – | > 10 µM | > 10 µM | > 10 µM | > 10 µM | > 10 µM | > 10 µM | > 10 µM | > 10 µM | > 10 µM | – | – | – | – | – | – | – | – | – | –
COc1cc(-c2nc(SCCC(C)C)nc(Nc3ccc(S(N)(=O)=O)cc3)c2C#N)cc(OC)c1OC | 8.45 µM | 5.86 µM | > 100 µM | 3.51 µM | > 100 µM | > 100 µM | 12.5 µM | – | > 100 µM | 4.85 µM | 2.8 µM | 3.46 µM | 1.81 µM | 3.5 µM | 3.17 µM | 2.92 µM | – | 4.04 µM | 2.3 µM | 2.01 µM
COC(C)(C)C/C=C/C(C)=C/C=C/C(C)=C\C=C\C(C)=C\C=C\C=C(C)\C=C\C=C(C)\C=C\C=C(C)\C=C\CC(C)(C)OC | > 150 µg/mL | > 150 µg/mL | > 150 µg/mL | > 150 µg/mL | > 150 µg/mL | > 150 µg/mL | > 150 µg/mL | – | > 150 µg/mL | > 150 µg/mL | > 150 µg/mL | > 150 µg/mL | > 150 µg/mL | > 150 µg/mL | > 150 µg/mL | > 150 µg/mL | – | > 150 µg/mL | > 150 µg/mL | > 150 µg/mL
O=c1cccccc1[O-].O=c1cccccc1[O-].O=c1cccccc1[O-].[La+3] | > 100 µM | 30.9 µM | > 100 µM | > 100 µM | 67.9 µM | 76.2 µM | > 100 µM | 86.9 µM | – | 31.2 µM | – | – | 22.3 µM | – | 11 µM | – | – | – | – | –
